Measurements as given in patent US10011607B2, “Ethynyl derivatives” (Hoffmann-La Roche Inc., priority 2015, dated 2018).

Target: human mGlu4 receptor (Homo sapiens (Human), UniProt Q14833)
Assay: Ca2+ mobilization in vitro assay on recombinant human mGlu4 expressed in HEK293 cells (PAM)
Format: cell-based
Details: for Emax: HEK293, maximal response in % of maximal stimulatory effect of saturating L-AP4, read-out: Eff. (%); for EC50: HEK293 cells, human mGlu4, in presence of EC20 of L-AP4, read-out: EC50 (nM) mGlu4PAM
How it was run: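 HEK293 cells stably expressing human mGlu4 at low level, Fluo-4AM loaded; compound (11 half-log dilutions) pre-incubated 10–30 min at 37 °C, then L-AP4 added at EC20 (determined daily). Peak fluorescence minus basal, normalized to saturating L-AP4; EC50, Hill slope and % Emax from four-parameter fit.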

Sequence of human mGlu4 receptor (Q14833 33-912): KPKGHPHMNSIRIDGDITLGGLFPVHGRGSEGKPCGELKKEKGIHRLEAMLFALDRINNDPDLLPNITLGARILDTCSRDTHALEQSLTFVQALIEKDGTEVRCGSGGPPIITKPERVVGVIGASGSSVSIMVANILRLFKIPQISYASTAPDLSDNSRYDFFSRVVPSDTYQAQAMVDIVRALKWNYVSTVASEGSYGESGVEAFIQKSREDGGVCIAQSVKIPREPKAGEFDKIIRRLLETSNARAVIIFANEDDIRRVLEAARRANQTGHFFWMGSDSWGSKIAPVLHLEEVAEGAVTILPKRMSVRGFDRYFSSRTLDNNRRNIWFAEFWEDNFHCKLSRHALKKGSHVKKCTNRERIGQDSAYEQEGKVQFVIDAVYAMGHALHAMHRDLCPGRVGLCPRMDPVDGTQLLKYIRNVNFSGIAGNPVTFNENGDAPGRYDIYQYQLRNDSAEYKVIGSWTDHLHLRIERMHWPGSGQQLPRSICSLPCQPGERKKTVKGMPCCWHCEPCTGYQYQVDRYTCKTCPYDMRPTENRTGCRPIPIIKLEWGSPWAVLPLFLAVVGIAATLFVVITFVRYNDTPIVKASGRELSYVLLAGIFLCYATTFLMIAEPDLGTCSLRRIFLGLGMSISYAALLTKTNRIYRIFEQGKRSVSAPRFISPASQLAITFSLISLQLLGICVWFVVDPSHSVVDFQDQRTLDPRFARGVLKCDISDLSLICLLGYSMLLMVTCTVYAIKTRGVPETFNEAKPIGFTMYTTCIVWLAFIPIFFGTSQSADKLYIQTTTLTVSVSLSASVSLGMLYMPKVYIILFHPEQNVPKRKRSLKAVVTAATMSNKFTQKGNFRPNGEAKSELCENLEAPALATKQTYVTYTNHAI

| SMILES | Emax [%] | EC50 [nM] |
| --- | --- | --- |
| Cc1cncc(C)c1N1CCN2C(=O)N(c3c(F)cc(C#Cc4ccccc4)cc3F)C(=O)C[C@@]2(C)C1=O [Example 17, (9aS)-7-[2,6-difluoro-4-(2-phenylethynyl)phenyl]-2-(3,5-dimethyl-4-pyridyl)-9a-methyl-4,9-dihydro-3H-pyrazino[1,2-c]pyrimidine-1,6,8-trione] | 136 | 201 |
| Cn1nccc1CCN1CCN2C(=O)N(c3c(F)cc(C#Cc4ccccc4)cc3F)C(=O)C[C@@]2(C)C1=O [Example 100, (9aS)-7-[2,6-difluoro-4-(2-phenylethynyl)phenyl]-9a-methyl-2-[2-(2-methylpyrazol-3-yl)ethyl]-4,9-dihydro-3H-pyrazino[1,2-c]pyrimidine-1,6,8-trione] | 123 | 219 |
| CC12CC(=O)N(c3c(F)cc(C#Cc4ccccc4)cc3F)C(=O)N1CCN(c1cccnc1)C2=O (racemic) [Example 6, (9aRS)-7-[2,6-difluoro-4-(2-phenylethynyl)phenyl]-9a-methyl-2-(3-pyridyl)-4,9-dihydro-3H-pyrazino[1,2-c]pyrimidine-1,6,8-trione] | 122 | 118 |
| CC12CC(=O)N(c3c(F)cc(C#Cc4ccccc4)cc3F)C(=O)N1CCN(Cc1ccccn1)C2=O (racemic) [Example 92, (9aRS)-7-[2,6-difluoro-4-(2-phenylethynyl)phenyl]-9a-methyl-2-(2-pyridylmethyl)-4,9-dihydro-3H-pyrazino[1,2-c]pyrimidine-1,6,8-trione] | 91 | 198 |
| CC12CC(=O)N(c3c(F)cc(C#Cc4ccccc4)cc3F)C(=O)N1CCN(c1ccncn1)C2=O (racemic) [Example 26, (9aRS)-7-[2,6-difluoro-4-(2-phenylethynyl)phenyl]-9a-methyl-2-pyrimidin-4-yl-4,9-dihydro-3H-pyrazino[1,2-c]pyrimidine-1,6,8-trione] | 101 | 36 |
| C[C@@]12CC(=O)N(c3c(F)cc(C#Cc4ccccc4)cc3F)C(=O)N1CCN(c1cnc(OCc3ccccc3)cn1)C2=O [Example 45, (9aS)-2-(5-benzyloxypyrazin-2-yl)-7-[2,6-difluoro-4-(2-phenylethynyl)phenyl]-9a-methyl-4,9-dihydro-3H-pyrazino[1,2-c]pyrimidine-1,6,8-trione] | 122 | 190 |
| CC[C@@]12CC(=O)N(c3c(F)cc(C#Cc4ccccc4)cc3F)C(=O)N1CCN(c1cccnc1)C2=O [Example 106, (9aS)-7-[2,6-difluoro-4-(2-phenylethynyl)phenyl]-9a-ethyl-2-(3-pyridyl)-4,9-dihydro-3H-pyrazino[1,2-c]pyrimidine-1,6,8-trione] | 112 | 95 |
| Cn1cc(N2CCN3C(=O)N(c4c(F)cc(C#Cc5ccccc5)cc4F)C(=O)C[C@@]3(C)C2=O)cn1 [Example 68, (9aS)-7-[2,6-difluoro-4-(2-phenylethynyl)phenyl]-9a-methyl-2-(1-methylpyrazol-4-yl)-4,9-dihydro-3H-pyrazino[1,2-c]pyrimidine-1,6,8-trione] | 135 | 90 |
| CC12CC(=O)N(c3c(F)cc(C#Cc4ccccc4)cc3F)C(=O)N1CCN(c1nc(C(F)(F)F)cs1)C2=O (racemic) [Example 56, (9aRS)-7-[2,6-difluoro-4-(2-phenylethynyl)phenyl]-9a-methyl-2-[4-(trifluoromethyl)thiazol-2-yl]-4,9-dihydro-3H-pyrazino[1,2-c]pyrimidine-1,6,8-trione] | 88 | 166 |
| COC[C@@]12CC(=O)N(c3c(F)cc(C#Cc4ccccc4)cc3F)C(=O)N1CCN(c1cccnc1)C2=O [Example 103, (9aR)-7-[2,6-difluoro-4-(2-phenylethynyl)phenyl]-9a-(methoxymethyl)-2-(3-pyridyl)-4,9-dihydro-3H-pyrazino[1,2-c]pyrimidine-1,6,8-trione] | 118 | 169 |
